Results reported in the supplement of paper PMC10883282.

Columns and labels:
Assay in all cases: relative viability vs DMSO control (72 h) (fraction); higher = more viable cells
KHOS-240S = system: KHOS-240S
Summary of the method: (§1)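 After seeding at densities set for 80–90% confluence in 384-well plates, sarcoma cell lines waited 24 h before 2.5 µl of serially diluted compound was added. Source plates held 10 mM down to 0.0002 mM. Plates were incubated 72 h at 37 °C with 5% CO2, with 0.1% DMSO vehicle and a 5 µM positive control, and relative viability was taken from ATPLite as percent growth averaged over up to triplicate wells, with 1 set as full and 0 as none.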

SW982 = system: SW982
Summary of the method: as §1

HT1080 = system: HT1080
Summary of the method: as §1

SW1353 = system: SW1353
Summary of the method: as §1

RD-ES = system: RD-ES
Summary of the method: as §1

C1=N/C2=N/c3ccc(OCCN4CCCC4)c(c3)COC/C=C/COCc3cccc(c3)C(=C1)N2 [Pacritinib]
relative viability
Conditions | HT1080 | KHOS-240S | RD-ES | SW982 | SW1353
0.00017 µM | 1.09 | 1.05 | 1 | 1.04 | 1.06
0.00051 µM | 1.07 | 1.08 | 1.03 | 1.08 | 1.091
0.00152 µM | 1.09 | 1.08 | 1.04 | 1.12 | 1.08
0.00457 µM | 1.09 | 1.08 | 1.01 | 1.09 | 1.03
0.01372 µM | 1.08 | 1.09 | 1.03 | 1.09 | 1
0.04115 µM | 1.09 | 1.06 | 1 | 1.11 | 0.981
0.1235 µM | 1.08 | 1.06 | 0.967 | 0.923 | 0.966
0.3704 µM | 1.12 | 0.985 | 0.821 | 0.573 | 0.882
1.111 µM | 0.925 | 0.5636 | 0.437 | 0.296 | 0.775
3.333 µM | 0.169 | 0.0954 | 0.109 | 0.157 | 0.178
10 µM | 0.101 | 0.108 | 0.165 | 0.153 | 0.0164

CC[C@@H]1C(=O)N(C)c2cnc(Nc3ccc(C(=O)N[C@H]4CC[C@H](N5CCN(CC6CC6)CC5)CC4)cc3OC)nc2N1C(C)C [Volasertib]
relative viability
Conditions | HT1080 | KHOS-240S | RD-ES | SW982 | SW1353
0.00017 µM | 1.057 | 1.07 | 1.02 | 1.047 | 0.972
0.00051 µM | 1.06 | 1.054 | 1 | 1.07 | 0.954
0.00152 µM | 1.06 | 1.06 | 1.01 | 1.08 | 0.945
0.00457 µM | 1.04 | 1.06 | 1.028 | 1.06 | 0.949
0.01372 µM | 1.03 | 0.979 | 0.987 | 1.01 | 0.958
0.04115 µM | 0.9978 | 0.319 | 0.447 | 0.353 | 0.902
0.1235 µM | 0.239 | 0.221 | 0.0248 | 0.259 | 0.635
0.3704 µM | 0.13 | 0.189 | 0.0217 | 0.209 | 0.52
1.111 µM | 0.139 | 0.171 | 0.0279 | 0.182 | 0.4419
3.333 µM | 0.0909 | 0.122 | 0.0346 | 0.15 | 0.3712
10 µM | 0.00783 | 0.0197 | 0.0126 | 0.0111 | 0.063

Cc1ccc(NC(=O)c2ccc(CN3CCN(C)CC3)cc2)cc1Nc1nccc(-c2cccnc2)n1 [Imatinib]
relative viability
Conditions | HT1080 | KHOS-240S | RD-ES | SW982 | SW1353
0.00017 µM | 1.06 | 0.98 | 0.954 | 0.985 | 1.01
0.00051 µM | 1 | 0.977 | 0.957 | 0.972 | 0.988
0.00152 µM | 0.989 | 0.9747 | 0.969 | 0.973 | 0.986
0.00457 µM | 1.02 | 0.98 | 0.952 | 0.975 | 1.04
0.01372 µM | 1.03 | 0.97 | 0.957 | 0.97 | 1.01
0.04115 µM | 0.987 | 0.971 | 0.961 | 0.98 | 1.02
0.1235 µM | 1.01 | 0.953 | 0.967 | 0.963 | 0.991
0.3704 µM | 0.968 | 0.929 | 0.962 | 0.979 | 1
1.111 µM | 0.973 | 0.895 | 0.951 | 0.983 | 1.06
3.333 µM | 0.942 | 0.794 | 0.923 | 0.96 | 1.1
10 µM | 0.643 | 0.542 | 0.61 | 0.531 | 0.762

C#Cc1cccc(Nc2ncnc3cc(OCCOC)c(OCCOC)cc23)c1 [Erlotinib]
relative viability
Conditions | HT1080 | KHOS-240S | RD-ES | SW982 | SW1353
0.00017 µM | 1.09 | 1.06 | 0.971 | 1.06 | 1.02
0.00051 µM | 1.1 | 1.07 | 0.974 | 1.06 | 1.03
0.00152 µM | 1.09 | 1.05 | 0.975 | 1.08 | 1.043
0.00457 µM | 1.08 | 1.08 | 0.992 | 1.08 | 1.02
0.01372 µM | 1.09 | 1.06 | 0.965 | 1.06 | 1.04
0.04115 µM | 1.12 | 1.07 | 0.967 | 1.08 | 1.01
0.1235 µM | 1.11 | 1.087 | 0.998 | 1.07 | 0.955
0.3704 µM | 1.097 | 1.08 | 0.994 | 1.07 | 0.928
1.111 µM | 1.1 | 1.062 | 0.987 | 0.9728 | 0.889
3.333 µM | 1.16 | 1.06 | 0.936 | 0.689 | 0.812
10 µM | 0.942 | 0.949 | 0.691 | 0.466 | 0.695

COc1cc(Nc2c(C#N)cnc3cc(OCCCN4CCN(C)CC4)c(OC)cc23)c(Cl)cc1Cl [Bosutinib]
relative viability
Conditions | HT1080 | KHOS-240S | RD-ES | SW982 | SW1353
0.00017 µM | 1.14 | 1.07 | 0.965 | 1.05 | 1.11
0.00051 µM | 1.14 | 1.08 | 0.981 | 1.08 | 1.11
0.00152 µM | 1.09 | 1.08 | 0.987 | 1.08 | 1.12
0.00457 µM | 1.14 | 1.1 | 0.972 | 1.08 | 1.09
0.01372 µM | 1.11 | 1.08 | 0.98 | 1.09 | 1.1
0.04115 µM | 1.16 | 1.06 | 0.974 | 1.08 | 1.13
0.1235 µM | 1.14 | 1.04 | 0.941 | 1.05 | 1.09
0.3704 µM | 1.14 | 0.962 | 0.906 | 0.816 | 1.04
1.111 µM | 1.05 | 0.734 | 0.715 | 0.511 | 0.896
3.333 µM | 0.775 | 0.49 | 0.472 | 0.359 | 0.673
10 µM | 0.0548 | 0.0326 | 0.0125 | 0.0126 | 0.0287
